Data on nine compounds can be found in ChEMBL document CHEMBL1152907, “Synthesis and cytotoxicities of icogenin analogues with disaccharide residues” (Bioorg Med Chem Lett, 2009).

Structures are written as SMILES.

What all share (assay type): functional, cell-based
The subject of test [1] is A2780. The experiment in a line: Cytotoxicity against human A2780 cells after 72 hrs by MTT assay. The settings on record: A2780, 72 h. (Tetrazolium dyes change colour on reduction, which living cells bring about.)
The subject of test [2] is Bel-7402. Briefly: Cytotoxicity against human Bel7402 cells after 72 hrs by MTT assay. The note with it: Bel-7402, 72 h.
Test [3] relates to BXPC-3. The experiment in a line: Cytotoxicity against human BxPC3 cells after 72 hrs by MTT assay. The settings on record: BXPC-3, 72 h.
Test [4] relates to PANC-1. Briefly: Cytotoxicity against human PANC1 cells after 72 hrs by MTT assay. The note with it: PANC-1, 72 h.
Test [5] concerns MCF7. The experiment in a line: Cytotoxicity against human MCF7 cells after 72 hrs by MTT assay. The note with it: MCF7, 72 h.
For test [6], the system named is A549. Briefly: Cytotoxicity against human A549 cells after 72 hrs by MTT assay. The note with it: A549, 72 h.
Test [7] concerns SW1990. The experiment in a line: Cytotoxicity against human SW1990 cells after 72 hrs by MTT assay. The settings on record: SW1990, 72 h.
Test [8] has as its system Capan-2. The experiment in a line: Cytotoxicity against human Capan2 cells after 72 hrs by MTT assay. The note with it: Capan-2, 72 h.
Test [9] relates to HCT-8. Briefly: Cytotoxicity against human HCT8 cells after 72 hrs by MTT assay. The settings on record: HCT-8, 72 h.
The test system of test [10] is HL-60. Briefly: Cytotoxicity against human HL60 cells after 72 hrs. The note with it: HL-60, 72 h.

For `C[C@@H]1CC[C@@]2(OC1)O[C@H]1C[C@H]3[C@@H]4CC=C5C[C@@H](O[C@@H]6O[C@H](CO)[C@@H](O)[C@H](O[C@@H]7O[C@@H](C)[C@H](O)[C@@H](O)[C@H]7O)[C@H]6O)CC[C@]5(C)[C@H]4CC[C@]3(C)[C@H]1[C@@H]2C` [POLYPHILLIN C], the IC50 – broadly, the concentration that gives 50% inhibition – in test [1] was above 10 µM; in [2], above 10 µM; in test [3] it was above 10 µM; in test [4], 11.8 µM; in test [5], 3.45 µM; in test [6], 2.3 µM. Also, the IC50 in test [7] worked out at 5.4 µM; in test [8], 2.7 µM; in [9], 4.16 µM.

Consider `CO[C@]1(CC[C@@H](C)CO)O[C@H]2C[C@H]3[C@@H]4CC=C5C[C@@H](O[C@H]6O[C@H](CO)[C@@H](O)[C@H](O)[C@H]6O[C@@H]6O[C@@H](C)[C@H](O)[C@@H](O)[C@H]6O)CC[C@]5(C)[C@H]4CC[C@]3(C)[C@H]2[C@@H]1C`, for which the IC50 in test [1] amounted to 7.8 µM; in test [2], 0.94 µM; in [3], 1.04 µM; in [4], 0.87 µM; in test [5], 2.65 µM; in test [6], 1.48 µM. Also, the IC50 in test [7] stood at 0.73 µM; in test [8], 1.36 µM; in test [9], 1.26 µM.

As for `C[C@@H]1CC[C@@]2(OC1)O[C@H]1C[C@H]3[C@@H]4CC=C5C[C@@H](O[C@H]6O[C@H](CO)[C@@H](O)[C@H](O)[C@H]6O[C@@H]6O[C@@H](C)[C@H](O)[C@@H](O)[C@H]6O)CC[C@]5(C)[C@H]4CC[C@]3(C)[C@H]1[C@@H]2C`, the IC50 in test [1], in test [2], in [3], in test [4], in test [5] and in [6] was above 10 µM each time. For the same compound, the IC50 in [7], in test [8] and in test [9] was above 10 µM in each case.

As to `CO[C@]1(CC[C@@H](C)CO)O[C@H]2C[C@H]3[C@@H]4CC=C5C[C@@H](O[C@@H]6O[C@H](CO)[C@@H](O)[C@H](O[C@@H]7O[C@H](CO)[C@@H](O)[C@H](O)[C@H]7O)[C@H]6O[C@@H]6O[C@@H](C)[C@H](O)[C@@H](O)[C@H]6O)CC[C@]5(C)[C@H]4CC[C@]3(C)[C@H]2[C@@H]1C` [ICOGENIN(BETA)], the IC50 was 0.92 µM in test [1]; 2.6 µM in test [10]; 0.86 µM in [2]; 1.1 µM in test [3]; 0.84 µM in test [4]; 1.07 µM in [5]. In addition, the IC50 in test [6] amounted to 1.86 µM; in [7], 1 µM; in test [8] it was 1.1 µM; in test [9], 0.93 µM.

For the compound `Nc1ccn([C@@H]2O[C@H](CO)[C@@H](O)C2(F)F)c(=O)n1` [GEMCITABINE], the IC50 is 0.31 µM in test [1]; 0.84 µM in [2]; 2.9 µM in test [3]; 5.6 µM in [4]; 3.28 µM in test [5]; 1.4 µM in [6]. Also, the IC50 in test [7] was found to be 1.2 µM; in test [8], 1.7 µM; in test [9] it was 1.74 µM.

For the compound `CO[C@]1(CC[C@@H](C)CO)O[C@H]2C[C@H]3[C@@H]4CC=C5C[C@@H](O[C@H]6O[C@H](CO)[C@@H](O)[C@H](O[C@@H]7O[C@H](CO)[C@@H](O)[C@H](O)[C@H]7O)[C@H]6O[C@@H]6O[C@@H](C)[C@H](O)[C@@H](O)[C@H]6O)CC[C@]5(C)[C@H]4CC[C@]3(C)[C@H]2[C@@H]1C`, the IC50 in [1] is 7.1 µM; in [2], 0.92 µM; in [3], 1 µM; in [4], 0.82 µM; in test [5], 1.2 µM; in [6], 0.89 µM. In addition, the IC50 in [7] came out at 0.9 µM; in [8], 1.1 µM; in test [9] it was 1.3 µM.

In the case of `CO[C@]1(CC[C@@H](C)CO)O[C@H]2C[C@H]3[C@@H]4CC=C5C[C@@H](O[C@@H]6O[C@H](CO)[C@@H](O)[C@H](O)[C@H]6O[C@@H]6O[C@@H](C)[C@H](O)[C@@H](O)[C@H]6O)CC[C@]5(C)[C@H]4CC[C@]3(C)[C@H]2[C@@H]1C`, the IC50 turned out to be 7.2 µM in [1]; 0.9 µM in [2]; 1.01 µM in test [3]; 0.83 µM in [4]; 2.89 µM in test [5]; 1.08 µM in [6]. Further, the values for the IC50 in test [7], in [8] and in [9] were 0.66 µM, 1.07 µM and 1.02 µM, respectively.

As for `C[C@@H]1CC[C@@]2(OC1)O[C@H]1C[C@H]3[C@@H]4CC=C5C[C@@H](O[C@@H]6O[C@H](CO)[C@@H](O[C@@H]7O[C@@H](C)[C@H](O)[C@@H](O)[C@H]7O)[C@H](O)[C@H]6O[C@@H]6O[C@@H](C)[C@H](O)[C@@H](O)[C@H]6O)CC[C@]5(C)[C@H]4CC[C@]3(C)[C@H]1[C@@H]2C` [DIOSCIN], the IC50 in test [1] amounted to 4.46 µM; in test [2] it was 0.23 µM; in test [3], 0.7 µM; in [4] it was 0.81 µM; in test [5], 1.03 µM; in test [6], 0.7 µM. Moreover, the IC50 amounted to 0.5 µM in test [7], 0.05 µM in test [8] and 0.56 µM in test [9].

For the compound `C[C@@H]1CC[C@@]2(OC1)O[C@H]1C[C@H]3[C@@H]4CC=C5C[C@@H](O[C@@H]6O[C@H](CO)[C@@H](O)[C@H](O[C@@H]7O[C@H](CO)[C@@H](O)[C@H](O)[C@H]7O)[C@H]6O[C@@H]6O[C@@H](C)[C@H](O)[C@@H](O)[C@H]6O)CC[C@]5(C)[C@H]4CC[C@]3(C)[C@H]1[C@@H]2C` [GRACILLIN], the IC50 in test [1] turned out to be 4.3 µM; in [2] it was 1.1 µM; in test [3] it was 1.3 µM; in test [4] it was 0.7 µM; in test [5], 17.5 µM; in test [6], 0.96 µM. Moreover, the IC50 in [7] was 1.1 µM; in test [8], 1.3 µM; in [9], 0.92 µM.
